Values quoted from earlier work as cited in US4127531A, “Novel hexapeptides, intermediates therefor, and compositions and methods employing said hexapeptides” (priority 1977, dated 1978).

Assays:
rat = conditions: injected directly into the brain of the rat
[1] = system: partially purified brain opiate receptor sites

For “H-Tyr-Gly-Gly-Phe-Met-OH [methionine enkephalin]”, the analgesic activity (rat) is listed as “only weak analgesic agent of short duration” and the “binding to partially purified brain opiate receptor sites” value [1] is listed as “binds stereo-specifically”.
